Experiments:
[1] = dog, in vivo
[2] = dog; intrathecal; cited from earlier work
[3] = system: Male beagle dogs; details: dog, in vivo

inulin [[^3H]Inulin]
T1/2 α in LCSF [1]: 9.6 min

O=C(c1ccccc1)c1ccc2n1CCC2C(=O)O (stereo not drawn) [ketorolac]
T1/2 (CSF elimination) in this model [2]: 54 min

CSCC[C@@H]1NC(=O)[C@H](CC(C)C)NC(=O)[C@H](CCCNC(=N)N)NC(=O)[C@H](CO)NC(=O)[C@@H]2CSSC[C@@H]3NC(=O)[C@H](CO)NC(=O)CNC(=O)[C@H]([C@@H](C)O)NC(=O)[C@H](CSSC[C@H](N)C(=O)N[C@@H](CCCCN)C(=O)NCC(=O)N[C@@H](CCCCN)C(=O)NCC(=O)N[C@@H](C)C(=O)N[C@@H](CCCCN)C(=O)N2)NC(=O)[C@H](CSSC[C@@H](C(N)=O)NC(=O)[C@H](CCCCN)NC(=O)CNC(=O)[C@H](CO)NC(=O)[C@H](CCCNC(=N)N)NC3=O)NC(=O)[C@H](CC(=O)O)NC(=O)[C@H](Cc2ccc(O)cc2)NC1=O [Ziconotide]
Decreased arousal and activity (remained responsive), dogs affected [3]: All 5 dogs

From PMC3514653 (Neuromodulation : journal of the International …, 2012)
